Data taken from patent US11053241B2, “TYK2 inhibitors and uses thereof” (Nimbus Lakshmi, Inc., priority 2018, dated 2021).

molecular target: human TYK2 (JH2domain-pseudokinase) (Homo sapiens (Human), UniProt P29597); test: TYK2 JH2 Domain Binding Assay (KINOMEscan); conditions: 11-point 3-fold dilution, top concentration 30,000 nM, duplicate
Protocol: Binding constants for compounds of the present invention against the JH2 domain were determined by the following protocol for a KINOMEscan® assay (DiscoveRx). A fusion protein of a partial length construct of human TYK2 (JH2domain-pseudokinase) (amino acids G556 to D888 based on reference sequence NP_003322.3) and the DNA binding domain of NFkB was expressed in transiently transfected HEK293 cells. From these HEK 293 cells, extracts were prepared in M-PER extraction buffer (Pierce) in the presence of Protease Inhibitor Cocktail Complete (Roche) and Phosphatase Inhibitor Cocktail Set II (Merck) per manufacturers' instructions. The TYK2(JH2domain-pseudokinase) fusion protein was labeled with a chimeric double-stranded DNA tag containing the NFkB binding site (5′-GGGAATTCCC-3′) fused to an amplicon for qPCR readout, which was added directly to the expression extract (the final concentration of DNA-tag in the binding reaction is 0.1 nM).
Streptavidin-coated magnetic beads (Dynal M280) were treated with a biotinylated small molecule ligand for 30 minutes at room temperature to generate affinity resins for the binding assays. The liganded beads were blocked with excess biotin and washed with blocking buffer (SeaBlock (Pierce), 1% BSA, 0.05% Tween 20, 1 mM DTT) to remove unbound ligand and to reduce nonspecific binding.
The binding reaction was assembled by combining 16 μl of DNA-tagged kinase extract, 3.8 μl liganded affinity beads, and 0.18 μl test compound (PBS/0.05% Tween 20/10 mM DTT/0.1% BSA/2 μg/ml sonicated salmon sperm DNA). Extracts were used directly in binding assays without any enzyme purification steps at a ≥10,000-fold overall stock dilution (final DNA-tagged enzyme concentration <0.1 nM). Extracts were loaded with DNA-tag and diluted into the binding reaction in a two step process. First extracts were diluted 1:100 in 1× binding buffer (PBS/0.05% Tween 20/10 mM DTT/0.1% BSA/2 μg/ml sonicated salmon sperm DNA) containing 10 nM DNA-tag. This dilution was allowed to equilibrate at room temperature for 15 minutes and then subsequently diluted 1:100 in 1× binding buffer. All reactions were performed in polypropylene 384-well plates. Each was a final volume of 0.02 mL. Assays were incubated with shaking for 1 hour at room temperature. Then the beads were pelleted and washed with wash buffer (1×PBS, 0.05% Tween 20) to remove displaced kinase and test compound. The washed based were re-suspended in elution buffer (1×PBS, 0.05% Tween 20, 0.5 μM non-biotinylated affinity ligand) and incubated at room temperature with shaking for 30 minutes. The kinase concentration in the eluates was measured by qPCR. qPCR reactions were assembled by adding 2.5 μL of kinase eluate to 7.5 μL of qPCR master mix containing 0.15 μM amplicon primers and 0.15 μM amplicon probe. The qPCR protocol consisted of a 10 minute hot start at 95° C., followed by 35 cycles of 95° C. for 15 seconds, 60° C. for 1 minute.
Test compounds were prepared as 111× stocks in 100% DMSO. Kd values were determined using an 11-point 3-fold compound dilution series with three DMSO control points. All compounds for Kd measurements are distributed by acoustic transfer (non-contact dispensing) in 100% DMSO. The compounds were then diluted directly into the assays such that the final concentration of DMSO was 0.9%. The Kd values were determined using a compound top concentration of 30,000 nM. Kd measurements were performed in duplicate.
Binding constants (Kds) were calculated with a standard dose-response curve using the Hill equation: […]
The Hill Slope was set to −1. Curves were fitted using a non-linear least square fit with the Levenberg-Marquardt algorithm (Levenberg, K., A method for the solution of certain non-linear problems in least squares, Q. Appl. Math. 2, 164-168 (1944)).

human TYK2 (JH2domain-pseudokinase), sequence (P29597 556-888): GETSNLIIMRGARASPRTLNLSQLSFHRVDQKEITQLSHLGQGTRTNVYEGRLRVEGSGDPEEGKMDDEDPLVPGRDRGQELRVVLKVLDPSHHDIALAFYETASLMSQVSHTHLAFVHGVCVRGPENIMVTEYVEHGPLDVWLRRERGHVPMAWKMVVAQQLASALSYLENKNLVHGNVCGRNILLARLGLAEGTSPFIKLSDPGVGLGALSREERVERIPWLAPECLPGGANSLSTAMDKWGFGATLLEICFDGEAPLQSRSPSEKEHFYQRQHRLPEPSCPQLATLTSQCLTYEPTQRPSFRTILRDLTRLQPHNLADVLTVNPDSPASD

Compound	Kd [nM]
CCc1csc(-c2cc3c(C(=O)NC)cnc(NC(=O)C4CC4)c3[nH]2)n1 [Compound I-70, 7-(cyclopropanecarboxamido)-2-(4-ethylthiazol-2-yl)-N-methyl-1H-pyrrolo[2,3-c]pyridine-4-carboxamide]	0.2 to 1
CNC(=O)c1cnc(NC(=O)C2CC2)c2[nH]c(-c3ncc(C(=O)N(C)C)cc3F)cc12 [Compound I-51, 7-(cyclopropanecarboxamido)-2-(5-(dimethylcarbamoyl)-3-fluoropyridin-2-yl)-N-methyl-1H-pyrrolo[2,3-c]pyridine-4-carboxamide]	0.2 to 1
CNC(=O)c1cnc(NC(=O)C2CC2)c2[nH]c(-c3ccc(C4COCCO4)cc3OC)cc12 (stereo not shown) [Compound I-89, 2-(4-(1,4-dioxan-2-yl)-2-methoxyphenyl)-7-(cyclopropanecarboxamido)-N-methyl-1H-pyrrolo[2,3-c]pyridine-4-carboxamide]	0.2 to 1
CNC(=O)c1cnc(NC(=O)C2CC2)c2[nH]c(-c3cccc(-c4nnn(C)n4)c3OC)cc12 [Compound I-59, 7-(cyclopropanecarboxamido)-2-(2-methoxy-3-(2-methyl-2H-tetrazol-5-yl)phenyl)-N-methyl-1H-pyrrolo[2,3-c]pyridine-4-carboxamide]	0.2 to 1
CCOc1cc(-c2nccn2C)cc(F)c1-c1cc2c(C(=O)NC)cnc(NC(=O)C3CC3)c2[nH]1 [Compound I-78, 7-(cyclopropanecarboxamido)-2-(2-ethoxy-6-fluoro-4-(1-methyl-1H-imidazol-2-yl)phenyl)-N-methyl-1H-pyrrolo[2,3-c]pyridine-4-carboxamide]	< 0.2
CNC(=O)c1cnc(NC(=O)C2CC2)c2[nH]c(-c3ccc(OC)cc3[C@H]3COCCO3)cc12 [Compound I-71]	> 10
CNC(=O)c1cnc(NC(=O)C2CC2)c2[nH]c(-c3ccc(OC[C@@H]4CCCO4)cc3F)cc12 [Compound I-88, (S)-7-(cyclopropanecarboxamido)-2-(2-fluoro-4-((tetrahydrofuran-2-yl)methoxy)phenyl)-N-methyl-1H-pyrrolo[2,3-c]pyridine-4-carboxamide]	< 0.2
CNC(=O)c1cnc(NC(=O)C2CC2)c2[nH]c(-c3ccc(-c4nccn4C)cc3OC3CC3)cc12 [Compound I-57, 7-(cyclopropanecarboxamido)-2-(2-cyclopropoxy-4-(1-methyl-1H-imidazol-2-yl)phenyl)-N-methyl-11H-pyrrolo[2,3-c]pyridine-4-carboxamide]	1 to 10
CNC(=O)c1cnc(NC(=O)C2CC2)c2[nH]c(-c3ccccc3N3CCC(O)CC3)cc12 [Compound I-46, 7-(cyclopropanecarboxamido)-2-(2-(4-hydroxypiperidin-1-yl)phenyl)-N-methyl-1H-pyrrolo[2,3-c]pyridine-4-carboxamide]	0.2 to 1
CNC(=O)c1cnc(NC(=O)C2CC2)c2[nH]c(-c3cccc(-c4nc(C)cn4C)n3)cc12 [Compound I-49, 7-(cyclopropanecarboxamido)-2-(6-(1,4-dimethyl-1H-imidazol-2-yl)pyridin-2-yl)-N-methyl-1H-pyrrolo[2,3-c]pyridine-4-carboxamide]	< 0.2
CNC(=O)c1cnc(Nc2ccn(C)n2)c2[nH]c(-c3ccccc3)cc12 [Compound I-93, N-methyl-7-((1-methyl-1H-pyrazol-3-yl)amino)-2-phenyl-1H-pyrrolo[2,3-c]pyridine-4-carboxamide]	0.2 to 1
CNC(=O)c1cnc(NC(=O)C2CC2)c2[nH]c(-c3ccc4nc(C)n(C)c4c3F)cc12 [Compound I-92, 7-(cyclopropanecarboxamido)-2-(7-fluoro-1,2-dimethyl-1H-benzo[d]imidazol-6-yl)-N-methyl-1H-pyrrolo[2,3-c]pyridine-4-carboxamide]	< 0.2
CNC(=O)c1cnc(NC(=O)C2CC2)c2[nH]c(-c3ccc(C4COCCO4)cc3OC)cc12 (stereo not shown) [Compound I-61, 2-(4-(1,4-dioxan-2-yl)-2-methoxyphenyl)-7-(cyclopropanecarboxamido)-N-methyl-1H-pyrrolo[2,3-c]pyridine-4-carboxamide]	> 10
CNC(=O)c1cnc(NC(=O)C2CC2)c2[nH]c(-c3cccc(-c4cn5c(n4)C(C)(C)OCC5)c3F)cc12 [Compound I-84, 7-(cyclopropanecarboxamido)-2-(3-(8,8-dimethyl-5,6-dihydro-8H-imidazo[2,1-c][1,4]oxazin-2-yl)-2-fluorophenyl)-N-methyl-1H-pyrrolo[2,3-c]pyridine-4-carboxamide]	< 0.2
CNC(=O)c1cnc(NC(=O)C2CC2)c2[nH]c(-c3cccc([C@H]4C[C@@H](OC)C4)c3F)cc12 [Compound I-91, 7-(cyclopropanecarboxamido)-2-(2-fluoro-3-((1s,3s)-3-methoxycyclobutyl)phenyl)-N-methyl-1H-pyrrolo[2,3-c]pyridine-4-carboxamide]	< 0.2
CNC(=O)c1cnc(NC(=O)C2CC2)c2[nH]c(-c3cccc(-n4cnc(C)n4)c3F)cc12 [Compound I-47, 7-(cyclopropanecarboxamido)-2-(2-fluoro-3-(3-methyl-1H-1,2,4-triazol-1-yl)phenyl)-N-methyl-1H-pyrrolo[2,3-c]pyridine-4-carboxamide]	< 0.2
CNC(=O)c1cnc(NC(=O)C2CC2)c2[nH]c(-c3c(F)cc(-c4nccn4C)cc3N3CCC(F)(F)C3)cc12 [Compound I-83, 7-(cyclopropanecarboxamido)-2-(2-(3,3-difluoropyrrolidin-1-yl)-6-fluoro-4-(1-methyl-1H-imidazol-2-yl)phenyl)-N-methyl-1H-pyrrolo[2,3-c]pyridine-4-carboxamide]	< 0.2
CNC(=O)c1cnc(NC(=O)C2CC2)c2[nH]c(-c3ccc(-c4cnccn4)cc3F)cc12 [Compound I-66, 7-(cyclopropanecarboxamido)-2-(2-fluoro-4-(pyrazin-2-yl)phenyl)-N-methyl-1H-pyrrolo[2,3-c]pyridine-4-carboxamide]	< 0.2
CNC(=O)c1cnc(NC(=O)C2CC2)c2[nH]c(-c3cccc(-c4nc(C)n(C)n4)c3F)cc12 [Compound I-73, 7-(cyclopropanecarboxamido)-2-(3-(1,5-dimethyl-1H-1,2,4-triazol-3-yl)-2-fluorophenyl)-N-methyl-1H-pyrrolo[2,3-c]pyridine-4-carboxamide]	< 0.2
CNC(=O)c1cnc(NC(=O)C2CC2)c2[nH]c(-c3cnccc3OC3CC3)cc12 [Compound I-44, 7-(cyclopropanecarboxamido)-2-(4-cyclopropoxypyridin-3-yl)-N-methyl-1H-pyrrolo[2,3-c]pyridine-4-carboxamide]	< 0.2
CNC(=O)c1cnc(NC(=O)C2CC2)c2[nH]c(-c3cccn(C4CCCOC4)c3=O)cc12 (stereo in doubt) [Compound I-56, (R)-7-(cyclopropanecarboxamido)-N-methyl-2-(2-oxo-1-(tetrahydro-2H-pyran-3-yl)-1,2-dihydropyridin-3-yl)-1H-pyrrolo[2,3-c]pyridine-4-carboxamide]	0.2 to 1
CNC(=O)c1cnc(NC(=O)C2CC2)c2[nH]c(-c3cccc(-c4nnn(C)n4)c3)cc12 [Compound I-50, 7-(cyclopropanecarboxamido)-N-methyl-2-(3-(2-methyl-2H-tetrazol-5-yl)phenyl)-1H-pyrrolo[2,3-c]pyridine-4-carboxamide]	0.2 to 1
